Assays:
Assay in all cases: relative viability (nuclei count vs DMSO), 5 days (fraction); higher = more cells survive
AZ505 = compound: C1CCC(CC1)N(CCNCCC2=C3C(=C(C=C2)O)NC(=O)CO3)C(=O)CCNCCC4=CC(=C(C=C4)Cl)Cl [AZ505]
How it was run: (§1)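 Cells of lung cancer lines were placed in 1536-well plates and kept overnight at 37 °C. Pinning then delivered five library-drug doses (not always all listed), spaced by √10, onto plates anchored with vehicle, and the cells were left 5 days without changing medium. One step fixed, permeabilised and stained them with Hoechst, and MetaXpress counted nuclei in 4× images. Viability, as a median over plates, is treated-well nuclei divided by vehicle-well nuclei, with acceptance only at control CV below 25% and at least one doubling.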

Dactolisib = compound: Cn1c(=O)n(-c2ccc(C(C)(C)C#N)cc2)c2c3cc(-c4cnc5ccccc5c4)ccc3ncc21 [Dactolisib]
How it was run: as §1

Dactolisib + Bortezomib = compound: Cn1c(=O)n(-c2ccc(C(C)(C)C#N)cc2)c2c3cc(-c4cnc5ccccc5c4)ccc3ncc21 [Dactolisib] + CC(C)C[C@H](NC(=O)[C@H](Cc1ccccc1)NC(=O)c1cnccn1)B(O)O [Bortezomib] (partner 0.002 µM)
How it was run: (§2)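 Lung cancer cell lines were seeded in 1536-well plates and dosed by pin tool the next day, with either a single drug or a fixed anchor-drug dose combined with five library-drug doses (not always all listed) spaced in √10 steps. Five days later, one step fixed the cells and stained their nuclei (final 0.05% Triton X-100, 1% formaldehyde, 1 ug/ml Hoechst), and nuclei were counted on 4× images. Relative viability is the nuclei count in treated wells divided by the count in vehicle wells, and each value is the median of duplicate plates.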

AZ505 + Alpelisib = compound: C1CCC(CC1)N(CCNCCC2=C3C(=C(C=C2)O)NC(=O)CO3)C(=O)CCNCCC4=CC(=C(C=C4)Cl)Cl [AZ505] + Cc1nc(NC(=O)N2CCC[C@H]2C(N)=O)sc1-c1ccnc(C(C)(C)C(F)(F)F)c1 [Alpelisib] (partner 2 µM)
How it was run: as §2

Cell Line	relative viability (AZ505; 0.08 µM)	relative viability (AZ505; 0.253 µM)	relative viability (AZ505; 0.8 µM)	relative viability (AZ505; 2.53 µM)	relative viability (AZ505; 8 µM)	relative viability (Dactolisib; 0.002 µM)	relative viability (Dactolisib; 0.006325 µM)	relative viability (Dactolisib; 0.02 µM)	relative viability (Dactolisib; 0.06325 µM)	relative viability (Dactolisib; 0.2 µM)	relative viability (Dactolisib + Bortezomib; first compound 0.002 µM)	relative viability (Dactolisib + Bortezomib; first compound 0.006325 µM)	relative viability (Dactolisib + Bortezomib; first compound 0.02 µM)	relative viability (Dactolisib + Bortezomib; first compound 0.06325 µM)	relative viability (Dactolisib + Bortezomib; first compound 0.2 µM)	relative viability (AZ505 + Alpelisib; first compound 0.08 µM)	relative viability (AZ505 + Alpelisib; first compound 0.253 µM)	relative viability (AZ505 + Alpelisib; first compound 0.8 µM)	relative viability (AZ505 + Alpelisib; first compound 2.53 µM)	relative viability (AZ505 + Alpelisib; first compound 8 µM)
NCI-H1651	0.927	0.984	0.977	0.938	1.04	1.01	1	0.872	0.555	0.434	1.05	0.952	0.884	0.886	0.67	0.94	1.03	0.977	0.89	0.939
NCI-H1703	0.733	0.853	1.04	1.11	1.03	–	0.768	0.784	0.479	0.405	0.321	0.272	0.159	0.199	0.213	0.292	0.372	0.414	0.341	0.369
Calu-6	0.94	1.01	0.96	0.993	1.01	1.06	0.989	1.05	0.622	0.473	1.08	1.07	1.06	0.593	0.387	0.842	1.07	0.934	0.937	0.962
EBC-1	0.967	0.929	1.03	1.01	0.924	1.05	0.883	0.724	0.236	0.244	0.625	0.523	0.373	0.216	0.191	0.815	0.806	0.893	0.857	0.66
A-427	0.932	0.958	0.886	1.08	0.99	1.1	0.908	0.936	0.572	0.586	0.947	0.959	0.966	0.61	0.581	1.08	1.11	1.04	1.01	1.08
NCI-H2347	0.643	0.759	0.738	0.589	0.833	1.27	0.971	0.958	0.771	0.517	0.809	0.916	0.894	0.691	0.402	0.558	0.591	0.643	0.522	0.714
NCI-H1355	0.928	0.854	0.97	0.936	1.03	1.05	0.925	0.915	0.479	0.369	1.21	1.21	1.13	0.937	0.525	0.775	0.769	0.834	0.65	0.902
PC-3 [JPC-3]	0.956	0.978	0.974	0.926	1.07	1.11	1.03	1.03	0.898	0.664	0.847	0.842	0.802	0.902	0.869	0.914	0.961	0.941	0.919	0.979
NCI-H2228	0.897	0.859	0.821	1.07	0.885	1.13	0.812	0.612	0.38	0.197	1.08	0.81	0.541	0.259	0.18	0.627	0.554	0.677	0.69	0.748
HOP-62	0.892	1.09	1.14	0.995	1.08	1.05	1.03	1.02	0.595	0.647	0.884	0.867	0.518	0.41	0.252	0.94	1.17	0.889	0.844	1.04
HARA	0.792	0.758	0.915	0.873	0.847	1.08	0.982	0.928	0.601	0.369	1.12	1.08	1.13	1.1	0.491	0.704	0.641	0.582	0.512	0.494
NCI-H838	0.915	0.976	0.948	0.942	0.998	0.978	0.775	0.659	0.347	0.296	0.852	0.725	0.434	0.22	0.242	0.988	0.966	0.943	0.928	1.01
NCI-H1755	0.93	1.05	0.962	0.98	0.958	1.04	0.976	0.963	0.887	0.742	1.01	0.848	0.933	0.711	0.58	0.893	0.915	0.911	0.883	0.923
HCC-78	0.794	0.775	0.861	0.937	0.978	1.06	0.909	0.829	0.657	0.387	0.483	0.43	0.404	0.269	0.203	–	0.515	0.306	0.411	0.462
IA-LM	0.931	0.914	0.898	0.953	1.13	1	0.837	0.701	0.273	0.129	0.828	0.691	0.511	0.145	0.0972	0.793	1.05	0.925	0.723	1
NCI-H322M	0.906	0.824	0.954	0.826	1.02	1.04	0.931	0.734	0.702	0.579	1.21	1.24	1.13	1.07	0.838	0.757	0.774	0.688	0.844	0.79

Cell Line	relative viability (AZ505; 0.08 µM)	relative viability (AZ505; 0.253 µM)	relative viability (AZ505; 0.8 µM)	relative viability (AZ505; 2.53 µM)	relative viability (AZ505; 8 µM)	relative viability (Dactolisib; 0.002 µM)	relative viability (Dactolisib; 0.006325 µM)	relative viability (Dactolisib; 0.02 µM)	relative viability (Dactolisib; 0.06325 µM)	relative viability (Dactolisib; 0.2 µM)	relative viability (Dactolisib + Bortezomib; first compound 0.002 µM)	relative viability (Dactolisib + Bortezomib; first compound 0.006325 µM)	relative viability (Dactolisib + Bortezomib; first compound 0.02 µM)	relative viability (Dactolisib + Bortezomib; first compound 0.06325 µM)	relative viability (Dactolisib + Bortezomib; first compound 0.2 µM)	relative viability (AZ505 + Alpelisib; first compound 0.08 µM)	relative viability (AZ505 + Alpelisib; first compound 0.253 µM)	relative viability (AZ505 + Alpelisib; first compound 0.8 µM)	relative viability (AZ505 + Alpelisib; first compound 2.53 µM)	relative viability (AZ505 + Alpelisib; first compound 8 µM)
NCI-H3122	0.972	1.01	0.975	0.931	1.02	0.993	1.01	0.981	0.99	0.751	1	0.987	1.11	1.09	0.927	0.79	0.677	0.772	0.721	0.836
SK-LU-1	0.634	0.683	0.65	0.679	0.797	0.879	0.995	0.88	0.502	0.359	–	1.05	1.21	1.16	0.457	0.499	0.846	0.537	0.69	0.741
COR-L23	0.947	0.97	0.893	0.933	0.95	1.15	1.06	0.911	0.27	0.249	1.21	0.803	0.765	0.327	0.149	0.532	0.646	0.463	0.624	0.598
NCI-H2087	0.883	0.987	0.978	0.996	0.982	1.38	1.22	1.07	0.657	0.437	1.04	0.784	0.791	0.548	0.382	0.863	1.03	1.01	1.14	0.997
LC-2-ad	0.902	0.922	1.01	1.07	0.998	1.03	0.959	1.06	0.823	0.58	1.09	–	1.04	0.734	0.52	0.774	0.797	0.832	0.957	0.877
NCI-H1915	0.954	1.06	0.945	0.942	0.949	1.02	1.03	1.02	0.657	0.579	1.06	0.931	0.965	0.902	0.737	1.01	1.1	0.977	0.986	1.08
NCI-H2023	0.901	0.936	0.931	0.923	0.957	0.827	0.875	0.579	0.166	0.12	0.673	0.805	0.655	0.171	0.123	0.561	0.618	0.588	0.491	0.533
COR-L 105	0.89	0.918	0.887	0.851	1.01	0.959	0.898	0.781	0.363	0.425	0.784	0.888	0.553	0.28	0.274	0.897	1.06	1.02	0.954	0.954
RERF-LC-KJ	0.947	0.968	0.925	0.953	0.943	1	0.961	0.889	0.497	0.509	1.17	0.978	1.01	0.641	0.574	0.775	0.767	0.741	0.901	0.863
LXF-289	0.967	0.98	0.988	1.02	1.01	1.07	1.04	1	0.998	0.84	1.07	1.03	1.07	0.971	0.648	0.983	–	1.02	1.06	1.01
PC-14	0.915	0.96	0.947	0.955	1.04	1.05	1.01	0.836	0.33	0.182	0.904	0.779	0.905	0.559	0.416	0.81	0.964	0.925	0.906	0.961
NCI-H650	1.01	0.887	0.948	1.1	1.01	1.07	0.937	0.892	0.747	0.412	0.884	0.774	0.834	0.653	0.3	1.03	1.31	1.03	1.14	1.21
NCI-H1666	0.899	0.978	0.974	0.973	0.961	1.09	0.926	0.957	0.746	0.639	0.859	0.756	0.722	0.392	0.404	0.899	1.01	0.867	0.999	1.05
NCI-H2085	0.872	0.953	0.894	0.971	1.05	1.02	0.986	0.96	0.553	0.387	1.1	0.884	0.97	0.662	0.376	0.825	0.905	0.884	1.01	1.01
NCI-H1734	0.905	0.914	0.952	0.971	0.958	1.04	0.887	0.864	0.384	0.313	0.92	0.741	0.781	0.346	0.243	0.633	0.626	0.631	0.744	0.683
